Assay results published in patent US9408871B2, “Methods for inhibiting complement activation and uses thereof” (THE UNIVERSITY OF BRITISH COLUMBIA, priority 2013, dated 2016).

Assays:
[1] = system: total complement-mediated hemolytic activity; experiment: total complement-mediated hemolytic activity assay (4.5% NHS, rabbit erythrocytes); format: cell-based, human; settings: rRBC, 30 min, read-out: IC50 (concentration required to achieve half maximal inhibition of lysis), total hemolytic activity
Excerpt: Erythrocyte lysis assays were used to measure complement-mediated hemolytic activity. Erythrocyte (RBC) lysis assays as previously described^18,37 were used to measure complement activity. For alternative pathway assays and for total hemolytic activity assays, unsensitized rabbit erythrocytes were used. Chicken erythrocytes were used for the terminal pathway assays.
Erythrocytes were washed three times in GVB with the reaction buffers as indicated, and counted using the Advia 120 Hematology System from Siemens (Siemens, Erlangen, Germany). Reactions in 300 μL were allowed to proceed for 30 min at 37° C., after which unlysed cells were pelleted by centrifugation at 600×g. Erythrocyte lysis, reflected by the released hemoglobin in the supernatant, was quantified by measuring the absorbance at 405 nm using the Mithras LB 940 microplate reader from Berthold Technologies (Bad Wildbad, Germany). Percent lysis was determined relative to the control of 100% lysis with H2O. […]
For total hemolytic activity assays, normal human serum (NHS) (4.5%), polyphosphate, and rabbit erythrocytes (rRBC) (6.0×10^7 cells/mL) were added sequentially to initiate lysis. […] Increasing absorbance corresponds to increasing hemoglobin release from lysed red blood cells. The linear region of the curve was determined to be between 20-80% lysis, corresponding to 2.5-4.5% serum. […]

[2] = system: retinal pigmented epithelial cells (ARPE-19); experiment: protection against H2O2 oxidative stress, microscopy; format: cell-based, human; settings: 100 μM to 1000 μM, H2O2 24 hours
Procedure: Using cultured cell lines as models of choroidal endothelial cells (CEC; RF/6A)^73 and retinal pigmented epithelial cells (ARPE-19)^74, we tested whether polyphosphate (polyP) could protect against stress-induced alterations in cell survival and deposition of terminal complement activation products (C5b-9).
CEC (FIG. 21) or ARPE-19 (FIG. 22) cells were grown to ˜80% confluence in DMEM+10% serum, and then incubated with varying concentration of hydrogen peroxide (H2O2) for 24 hours in the presence of varying concentrations of polyP1000.

[3] = system: choroidal neovascularization; experiment: experimental laser-induced choroidal neovascularization (CNV) model, retina whole mounts; format: in vivo; settings: rat, intravitreal injection 10′ after laser, final estimated concentration 200 μM, 5 days
Procedure: Eleven-week-old female Long Even (LE) rats (Charles River Laboratory, Wilmington, Mass.) weighing 256 to 315 g were used. The animals were handled in accordance with institutional guidelines and the ARVO Statement for the Use of Animals in Ophthalmic and Vision Research. The rats were anesthetized by intramuscular injection of a 1 mL/kg mixture (1:1) of ketamine hydrochloride (40 mg/kg) and xylazine hydrochloride (10 mg/ml), and their pupils were dilated with tropicamide (0.5% Mydrin). Experimental choroidal neovascularization (CNV) was created as described previously (Takehana et al., Invest Ophthalmol Vis Sci, 1999, 40 (2):459-66). […]
After laser treatment, under anesthesia, intravitreal injections were performed on a lasered eye under a dissecting microscope (Stereo dissection microscope, SMZ 1000; Nikon, Tokyo, Japan). […] After the procedure, animals were monitored in a recovery enclosure until they resumed baseline normal activity levels. […]
Each eye cup flatmount preparation was analyzed using a confocal laser-scanning microscope (Zeiss-LSM 510 META). […] Intensity and size of GSL-IB4 and C5b-9 immunohistochemistry were analyzed using image-processing and image-analysis software Image J 1.37 (developed by Wayne Rasband, National Institute of Health, Bethesda, Md., USA). […]

O=P(O)(O)O [P1, Orthophosphate]
IC50 [1]: ~3.5 mM
protective effect against H2O2 oxidative stress, ARPE-19 [2]: No effect was observed
neovascularization and deposition of MAC on retina after laser injury [3]: is not protective
